Measurements taken from patent publication US20100160369A1, “S1P1 Agonists and Methods of Making And Using” (EXELIXIS, INC., priority 2008, published 2010).

Biological target: S1P1 (Homo sapiens, UniProt P21453)
Assay: CNG cAMP Assay (Assay 1)
Assay type: cell-based
Parameters: host or cells: HEK293 cells expressing the CNG channel
Conditions: read-out: Assay 1 EC50
Description: Frozen HEK293 cells expressing the CNG channel and S1P1 (BD Biosciences, San Jose, Calif.) were thawed and plated into the wells of a black, clear bottom, 384-well CellBind plate (Corning, Corning, N.Y.) at 14,000 cells per well. HEK293 cells expressing the CNG channel and CB1 (BD Biosciences) were cultured and plated under the same conditions. The cells were incubated for 16 h at 37° C. in complete DMEM medium (Invitrogen Carlsbad, Calif.) containing 10% FBS (HyClone Logan, Utah), 250 μg/mL geneticin (Invitrogen), and 1 μg/mL puromycin (Sigma-Aldrich, St. Louis, Mo.). A membrane potential dye (BD Biosciences) was added and the plates were incubated for 2-2.5 h at room temperature.
Test compounds were tested at maximum concentrations of 10 μM. Compounds were diluted in DMSO (10 concentration points, 3-fold each) and added to the assay plate at final DMSO concentrations of 1.8%. For each compound, there were duplicate assay plates and each assay plate had duplicate wells per concentration point. Test compounds were added to the cells in a DPBS solution containing 25 μM Ro 20-1724 (Sigma-Aldrich), 500 nM of the A2b receptor agonist NECA (Sigma-Aldrich) and 10 nM (EC95) of S1P (Avanti Alabaster, Ala.) and incubated for 90 min. The assay plate was read before compound addition (T0) and after the 90 min incubation (T90) using an EnVision plate reader (PerkinElmer, Waltham, Mass.) at an excitation wavelength of 350 nm and an emission wavelength of 590 nm. The T90/T0 ratio was determined for each concentration of the test compounds. The percent agonist activity was determined as [(test compound−DMSO alone control)/(NECA alone control−DMSO alone control)*100]. The percent activities were plotted against compound concentration to determine EC50 using XLFit (IDBS, Alameda, Calif.). The control used for calculating rEC50 in the S1P1 CNG agonist assay was DMSO.
Assay 1 is the CNG cAMP Assay as described in Biological Example 1. Assay 2a and 2b are the Tango™ β-arrestin Recruitment Assay in HEK293 and U2OS cells, respectively, as described in Biological Example 2. Assay 3a is the hS1P1R GTPγS Binding Assay as described in Biological Example 3. Assay 3b is the GTP-Eu Binding Assay as described in Biological Example 3. EC50's were measured unless otherwise noted. […] In the table, “nt” means the Compound was not tested and “no” means the compound was tested but had no measurable activity under the assay conditions employed.

S1P1, sequence (P21453 whole entry): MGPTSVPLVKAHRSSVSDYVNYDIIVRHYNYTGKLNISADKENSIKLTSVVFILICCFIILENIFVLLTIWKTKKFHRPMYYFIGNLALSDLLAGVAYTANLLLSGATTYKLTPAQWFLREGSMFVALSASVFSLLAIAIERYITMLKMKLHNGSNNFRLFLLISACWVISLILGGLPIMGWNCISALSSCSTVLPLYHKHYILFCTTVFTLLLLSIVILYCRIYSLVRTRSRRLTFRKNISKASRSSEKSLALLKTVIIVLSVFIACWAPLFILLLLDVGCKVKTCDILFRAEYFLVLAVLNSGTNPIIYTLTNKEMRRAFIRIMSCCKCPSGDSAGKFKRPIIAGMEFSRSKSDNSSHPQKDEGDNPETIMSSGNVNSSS

EC50 [µM] | SMILES
≤ 0.1 | O=C(O)CCc1ccc(-c2noc(-c3cn4cc(C(F)(F)F)cc(Cl)c4n3)n2)c(C(F)(F)F)c1 [Entry 8]
≤ 0.1 | Cc1cc(-c2noc(-c3cn4cc(C(F)(F)F)cc(Cl)c4n3)n2)ccc1CCC(=O)O [Entry 23]
0.1 to 0.5 | O=C(O)CCc1cc(Cl)c(-c2noc(-c3cn4cccc(Cl)c4n3)n2)cc1F [Entry 32]
0.5 to 1 | Cc1c(Cl)cn2cc(-c3nc(-c4cc(F)c(CCC(=O)O)cc4Cl)no3)nc2c1Cl [Entry 35]
≤ 0.1 | N#Cc1cc(Cl)c2nc(-c3nc(-c4cc(F)c(CCC(=O)O)cc4Cl)no3)cn2c1 [Entry 48]
≤ 0.1 | O=C(O)C(O)COc1ccc(-c2noc(-c3cn4cc(C(F)(F)F)cc(Cl)c4n3)n2)c(Cl)c1 (stereo not drawn) [Entry 57]
≤ 0.1 | O=C(O)CCc1cc(F)c(-c2noc(-c3cn4cc(C(F)(F)F)cc(Cl)c4n3)n2)cc1F [Entry 60]
≤ 0.1 | Cc1c(Br)cc(Br)c2nc(-c3nc(-c4cc(F)c(CCC(=O)O)cc4Cl)no3)cn12 [Entry 62]
0.1 to 0.5 | CC(Oc1cc(Cl)c(-c2noc(-c3cn4cc(C(F)(F)F)cc(Cl)c4n3)n2)cc1F)C(=O)O (stereo not drawn) [Example 83, 2-[(5-chloro-4-{5-[8-chloro-6-(trifluoromethyl)imidazo[1,2-a]pyridin-2-yl]-1,2,4-oxadiazol-3-yl}-2-fluorophenyl)oxy]propanoic acid]
0.1 to 0.5 | O=C(O)CCNc1ccc(-c2noc(-c3cn4cc(C(F)(F)F)cc(Cl)c4n3)n2)c(Cl)c1 [Example 95, N-(3-chloro-4-{5-[8-chloro-6-(trifluoromethyl)imidazo[1,2-a]pyridin-2-yl]-1,2,4-oxadiazol-3-yl}phenyl)-beta-alanine]
0.1 to 0.5 | O=C(O)CNc1ccc(-c2noc(-c3cn4cc(C(F)(F)F)cc(Cl)c4n3)n2)c(Cl)c1 [Example 103, N-(3-chloro-4-{5-[8-chloro-6-(trifluormethyl)imidazo[1,2-a]pyridin-2-yl]-1,2,4-oxadiazol-3-yl}phenyl)glycine]
≤ 0.1 | CS(=O)(=O)Nc1cc(Cl)c(-c2noc(-c3cn4cc(C(F)(F)F)cc(Cl)c4n3)n2)cc1F [Example 111, N-(5-chloro-4-{5-[8-chloro-6-(trifluoromethyl)imidazo[1,2-a]pyridin-2-yl]-1,2,4-oxadiazol-3-yl}-2-fluorophenyl)methanesulfonamide]
≤ 0.1 | CCOC(=O)C(C)Oc1cc(Cl)c(-c2noc(-c3cn4cc(C(F)(F)F)cc(Cl)c4n3)n2)cc1F (stereo not drawn) [Example 113, ethyl 2-[(5-chloro-4-{5-[8-chloro-6-(trifluoromethyl)imidazo[1,2-a]pyridin-2-yl]-1,2,4-oxadiazol-3-yl}-2-fluorophenyl)oxy]propanoate]

Second part, the compound before the results:

SMILES | EC50 [µM]
NC(Cc1ccc(-c2noc(-c3cn4cc(C(F)(F)F)cc(Cl)c4n3)n2)c(Cl)c1)C(=O)O (stereo not drawn) [Entry 11] | 0.1 to 0.5
O=C(O)CCc1ccc(-c2noc(-c3cn4cc(C(F)(F)F)cc(Cl)c4n3)n2)cc1 [Entry 22] | ≤ 0.1
O=C(O)C1CC1c1ccc(-c2noc(-c3cn4cc(C(F)(F)F)cc(Cl)c4n3)n2)c(F)c1 (stereo not drawn) [Entry 41] | 0.1 to 0.5
Fc1cccc(F)c1-c1nnc(-c2cn3cc(C(F)(F)F)cc(Cl)c3n2)o1 [Entry 66] | 0.5 to 1
O=C(O)C1CC1c1ccc(-c2noc(-c3cn4cc(C(F)(F)F)cc(Cl)c4n3)n2)c(C(F)(F)F)c1 (stereo not drawn) [Entry 70] | 0.1 to 0.5
NC(=O)C1CC1c1ccc(-c2noc(-c3cn4cc(C(F)(F)F)cc(Cl)c4n3)n2)c(Cl)c1 (stereo not drawn) [Entry 72] | ≤ 0.1
FC(F)(F)c1cc(Cl)c2nc(-c3nnc(-c4ccccc4Cl)o3)cn2c1 [Entry 73] | ≤ 0.1
O=C(O)C1CC1c1ccc(-c2noc(-c3cn4cc(C(F)(F)F)cc(Cl)c4n3)n2)cc1F (stereo not drawn) [Example 78, 2-(4-{5-[8-chloro-6-(trifluoromethyl)imidazo[1,2-a]pyridin-2-yl]-1,2,4-oxadiazol-3-yl}-2-fluorophenyl)cyclopropanecarboxylic acid] | 0.1 to 0.5
OC[C@H]1C[C@H](Oc2ccc(-c3noc(-c4cn5cc(C(F)(F)F)cc(Cl)c5n4)n3)c(Cl)c2)CN1 [Example 84, {(2R,4S)-4-[(3-chloro-4-{5-[8-chloro-6-(trifluoromethyl)imidazo[1,2-a]pyridin-2-yl]-1,2,4-oxadiazol-3-yl}phenyl)oxy]pyrrolidin-2-yl}methanol] | 0.1 to 0.5
Cc1cc(-c2noc(-c3cn4cc(C(F)(F)F)cc(Cl)c4n3)n2)ccc1C1CC1C(=O)O (stereo not drawn) [Example 86, 2-(4-{5-[8-chloro-6-(trifluoromethyl)imidazo[1,2-a]pyridin-2-yl]-1,2,4-oxadiazol-3-yl}-2-methylphenyl)cyclopropanecarboxylic acid] | 0.1 to 0.5
OC[C@@H]1C[C@H](Oc2ccc(-c3noc(-c4cn5cc(C(F)(F)F)cc(Cl)c5n4)n3)c(Cl)c2)CN1 [Example 87, {(2S,4S)-4-[(3-chloro-4-{5-[8-chloro-6-(trifluoromethyl)imidazo[1,2-a]pyridin-2-yl]-1,2,4-oxadiazol-3-yl}phenyl)oxy]pyrrolidin-2-yl}methanol] | ≤ 0.1
O=C(O)C1CC1c1cc(F)c(-c2noc(-c3cn4cc(C(F)(F)F)cc(Cl)c4n3)n2)cc1F (stereo not drawn) [Example 88, 2-(4-{5-[8-chloro-6-(trifluoromethyl)imidazo[1,2-a]pyridin-2-yl]-1,2,4-oxadiazol-3-yl}-2,5-difluorophenyl)cyclopropanecarboxylic acid] | ≤ 0.1
Nc1ccc(-c2noc(-c3cn4cc(C(F)(F)F)cc(Cl)c4n3)n2)c(Cl)c1 [Example 90, 3-chloro-4-{5-[8-chloro-6-(trifluoromethyl)imidazo[1,2-a]pyridin-2-yl]-1,2,4-oxadiazol-3-yl}aniline] | ≤ 0.1
Cc1cc(-c2noc(-c3cn4cc(C(F)(F)F)cc(Cl)c4n3)n2)cc(C)c1O[C@H](C)CO [Example 91, (2R)-2-[(4-{5-[8-chloro-6-(trifluoromethyl)imidazo[1,2-a]pyridin-2-yl]-1,2,4-oxadiazol-3-yl}-2,6-dimethylphenyl)oxy]propan-1-ol] | ≤ 0.1
Cc1cc(NS(C)(=O)=O)c(F)cc1-c1noc(-c2cn3cc(C(F)(F)F)cc(Cl)c3n2)n1 [Example 106, N-(4-{5-[8-chloro-6-(trifluoromethyl)imidazo[1,2-a]pyridin-2-yl]-1,2,4-oxadiazol-3-yl}-2-fluoro-5-methylphenyl)methane sulfonamide] | ≤ 0.1
Cc1cc(-c2noc(-c3cn4cc(C(F)(F)F)cc(Cl)c4n3)n2)cc(C)c1O[C@@H](C)CO [Example 107, (2S)-2-[(4-{5-[8-chloro-6-(trifluoromethyl)imidazo[1,2-a]pyridin-2-yl]-1,2,4-oxadiazol-3-yl}-2,6-dimethylphenyl)oxy]propan-1-ol] | ≤ 0.1
CS(=O)(=O)Nc1ccc(-c2noc(-c3cn4cc(C(F)(F)F)cc(Cl)c4n3)n2)cc1F [Example 109, N-(4-{5-[8-chloro-6-(trifluoromethyl)imidazo[1,2-a]pyridin-2-yl]-1,2,4-oxadiazol-3-yl}-2-fluorophenyl)methanesulfonamide] | 0.1 to 0.5
O=C(O)CN1CCC(Oc2ccc(-c3noc(-c4cn5cc(C(F)(F)F)cc(Cl)c5n4)n3)c(Cl)c2)C1 (stereo not drawn) [Example 112] | ≤ 0.1

Same assay, conditions: relative EC50 was measured (footnote 1), read-out: Assay 1 Relative EC50

EC50 [µM] | SMILES
5 to 10 | O=C(O)CCc1cc(Cl)c(-c2noc(-c3cn4ccccc4n3)n2)cc1F [Entry 27]
1 to 5 | O=C(O)CCc1cc(Cl)c(-c2noc(-c3cn4cc(F)cc(F)c4n3)n2)cc1F [Entry 40]
5 to 10 | COc1cc2nc(-c3nc(-c4cc(F)c(CCC(=O)O)cc4Cl)no3)cn2cc1Cl [Entry 55]
1 to 5 | CS(=O)(=O)Nc1cc(Cl)c2nc(-c3nc(-c4cc(F)c(CCC(=O)O)cc4Cl)no3)cn2c1 [Entry 59]

Second part, the compound before the results:

SMILES | EC50 [µM]
C=CCOc1c(C)cc(-c2noc(-c3cn4cc(C(F)(F)F)cc(Cl)c4n3)n2)cc1C [Entry 37] | 5 to 10
O=C(O)CCc1ccc(Nc2nnc(-c3cn4cc(C(F)(F)F)cc(Cl)c4n3)o2)c(Cl)c1 [Entry 74] | 5 to 10
O=C(O)C1CC1c1ccc(-c2noc(-c3cn4cc(C(F)(F)F)cc(Cl)c4n3)n2)cc1 (stereo not drawn) [Entry 75] | 0.5 to 1
CCN(CC)CCS(=O)(=O)Nc1ccc(-c2noc(-c3cn4cc(C(F)(F)F)cc(Cl)c4n3)n2)c(Cl)c1 [Example 108, N-(3-chloro-4-{5-[8-chloro-6-(trifluoromethyl)imidazo[1,2-a]pyridin-2-yl]-1,2,4-oxadiazol-3-yl}phenyl)-2-(diethylamino)ethanesulfonamide] | 1 to 5
